Data reported in the METLIN SMRT retention time set (Domingo-Almenara et al. 2019).

Assay: gradient 5% acetonitrile 3 min, to 50% in 2 min, to 85% in 15 min, held 3 min, 100 µL/min
Settings: column: Zorbax Extend-C18 2.1 x 50 mm; eluents: water / acetonitrile, 0.1% formic acid
Outline: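 Standards, all pure, were combined into mixtures of ~100 molecules and run at 100 μL/min on a Zorbax Extend-C18 column (2.1 × 50 mm, 1.8 μm) with water and acetonitrile, each containing 0.1% formic acid. A coupled quadrupole time-of-flight mass spectrometer operated in positive and negative ionization mode. Retention time values come from computationally picked adduct peaks, each inspected manually.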

| SMILES | RP-LC retention time [s] |
| --- | --- |
| CCc1cccc(NC(=O)Cn2c(=O)n(-c3cccc(C)c3)c(=O)c3c2cc(C)n3C)c1 | 966 |
| CSc1cccc(NC(=O)Cn2c(=O)n(-c3ccccc3)c(=O)c3c2cc(C)n3C)c1 | 861 |
| O=C(c1ccsc1)N1CCC[C@H]1c1nc(C2CCOCC2)n[nH]1 | 592 |
| CCN1C(=O)C2(CCN(C(=O)CC(C)C)CC2)c2ccccc21 | 818 |
| CCc1ccc(NC(=O)CSc2cc(N3CCCCC3C)ncn2)cc1 (centres undefined) | 1100 |
| Clc1ccc(-c2ccc(CNc3nn[nH]n3)o2)c(Cl)c1 | 845 |
| Cc1ccc(N2C(=O)C3N=NN(Cc4nc(-c5cccc(C(F)(F)F)c5)no4)C3C2=O)cc1Cl (centres undefined) | 1180 |
| CCCOc1cc(N2CCN(C(=O)c3ccc4c(c3)OCO4)CC2)nc(C)n1 | 608 |
| Cc1ccc2sc(N(Cc3ccccn3)C(=O)C3COc4ccccc4O3)nc2c1C (centres undefined) | 1250 |
| O=C(Cc1cc(-c2ccc3c(c2)OCO3)on1)Nc1ccc(F)c(F)c1F | 888 |
| CC(=O)Nc1nc(-c2cccnc2)cs1 | 504 |
| COc1ccc(C(=O)N(CN2CCCC2=O)c2nccs2)cc1OC | 647 |
| Cc1cc2c(=O)n(CC(=O)Nc3ccc(C)c(Cl)c3)ccc2s1 | 896 |
| Cn1nc2c(c1NC(=O)c1cc(C(F)(F)F)cc(C(F)(F)F)c1)CCC2 | 927 |
| CC(C)CCNC(=O)c1ccc(Cn2c(C(F)(F)F)nc3cccnc32)cc1 | 905 |
| Cc1ccc(CC(=O)Nc2ccc(-c3nc(Cn4nc(C)cc4C)c(C)o3)cc2)cc1 | 559 |
| CCCS(=O)(=O)N1CCCCC1c1nc(-c2cccnc2)n[nH]1 (centres undefined) | 601 |
| Cn1cc(CCNC(=O)c2ccccc2Br)c2cccnc21 | 660 |
| CC(=O)N1CCC(n2c(C)nc(C(=O)Nc3ccc4c(c3)OCO4)c2C)CC1 | 603 |
| CCc1ccc(NC(=O)CN2C(=O)NC3(CCCCC3)C2=O)cc1 | 765 |
| Cc1cc(C)n(Cc2ccc(C(=O)N3CCN(c4cc(=O)n(C(C)C)c(=O)n4C(C)C)CC3)o2)n1 | 772 |
| O=C1COc2ccccc2N1Cc1nc(-c2cccc(C(F)(F)F)c2)no1 | 1100 |
| FC(F)(F)c1nc(N2CCN(Cc3ccccc3)CC2)nc2c1CCCCC2 | 885 |

| SMILES | RP-LC retention time [s] |
| --- | --- |
| COCc1noc(C2CN(C(=O)CC(F)(F)F)CC23CCCC3)n1 (centres undefined) | 798 |
| N#CCCSc1ccccc1NC(=O)c1ccc([N+](=O)[O-])s1 | 846 |
| Clc1cccc(-c2noc(-c3nc(-c4ccncc4)no3)n2)c1 | 1130 |
| Cn1nc(C(=O)Nc2cccc3nsnc23)ccc1=O | 723 |
| c1ccc(-c2noc(NCCc3ccsc3)n2)cc1 | 969 |
| CCOc1ccc2ncc(S(=O)(=O)c3ccc(C)c(C)c3)c(N3CCN(CC)CC3)c2c1 | 693 |
| O=S(=O)(c1ccc2c(c1)OCCO2)N1CCC(CN2CCCCCC2)CC1 | 645 |
| Cc1ccc(-c2noc(Cc3nnc(-c4ccc(C)c(F)c4)o3)n2)cc1C | 1210 |
| CCN1CCN(Cc2nc(-c3ccc(N4CCSCC4)nc3)no2)CC1 | 604 |
| CC(C)CN1CCN(S(=O)(=O)c2ccc(-c3nnc(C(C)C)o3)o2)CC1 | 652 |
| CCc1cc(=O)n(CC(=O)NCc2cccc(OC)c2)c(N)n1 | 584 |
| O=C(Cn1nc(C2CC2)cc1C(=O)N1CCCC1)Nc1ccc(F)cc1Cl | 813 |
| COCCn1cc(CCNC(=O)Nc2cc(C)cc(C)c2)c2cccnc21 | 776 |
| CCCS(=O)(=O)N1CCCC(C)(C(=O)NCc2ccc(OC)cc2)C1 (centres undefined) | 798 |
| CC(=O)N1CCc2nn(CC(=O)Nc3ccccc3Cl)c(=O)cc2C1 | 606 |
| Cc1ccc(N2CC(c3noc(-c4ccc(N(C)C)cc4)n3)CC2=O)cc1 (centres undefined) | 980 |
| O=C(CN1CC=C(c2cnn(-c3ccccc3)c2)CC1)NCc1ccccn1 | 594 |
| Cc1cc(N2CCN(C(=O)Nc3ccc(C)c(C)c3)CC2)nc(N2CCOCC2)n1 | 666 |
| O=C(Nc1ncn[nH]1)C1CCC1 | 546 |
| CCOc1ccc(-n2nnnc2CNC(=O)Nc2cccs2)cc1 | 722 |
| Cc1cc(C)cc(NC(=O)c2cccn2Cc2noc(C)n2)c1 | 928 |
| CCCc1noc(-c2ccc3nnc(CC(=O)NC4CCCC4)n3c2)n1 | 922 |
| CCCOC(=O)C1=C(C)NC2=C(C(=O)C(C(=O)OC)C(C)C2)C1c1ccc(F)cc1 (centres undefined) | 958 |

The remaining lines, values ahead:

| RP-LC retention time [s] | SMILES |
| --- | --- |
| 984 | O=C1COc2ccccc2N1Cc1nc(-c2ccc(F)cc2)no1 |
| 1120 | COc1ccc(Cl)cc1NC(=O)N1CCC(COCc2ccccc2)CC1 |
| 725 | O=C(NCCc1ccccc1)N1CCC(n2c(-c3ccoc3)nc3cccnc32)C1 (centres undefined) |
| 951 | O=C(NCc1ccccc1)c1cc(N2CCCC2)n2nccc2n1 |
| 963 | CC1(C)CC(=O)c2cn(-c3ccccc3)c(=O)c(C(=O)NC3CC3)c2C1 |
| 887 | CCc1ccc(NC2CC(=O)N(c3ccc(OC)cc3OC)C2=O)cc1 (centres undefined) |
| 933 | COC(=O)c1ccccc1NC(=O)Cn1c(=O)n(-c2ccc(F)cc2)c(=O)c2c1cc(C)n2C |
| 892 | CCOc1ccc(CNC(=O)C2=C3CCCN3c3ccc(F)cc3S2(=O)=O)cc1 |
| 579 | Cc1ccnc(N2CCCC(C(=O)NCC3CCN(Cc4cccc(F)c4)CC3)C2)n1 (centres undefined) |
| 586 | COc1cccc(N2CC(C(=O)Nc3nnc4n3CCS4)CC2=O)c1 (centres undefined) |
| 874 | Cc1ccc(-c2nnc(-c3cccc(S(=O)(=O)NC(C(=O)O)C(C)C)c3)o2)cc1 (centres undefined) |
| 1230 | Cc1ccc(-c2ccc(-n3nc(C)c(S(=O)(=O)N4CCCC(C)C4)c3C)nn2)cc1 (centres undefined) |
| 664 | CNC(=O)C1CCCN(c2nc3ncn(CC(=O)NCc4ccccc4Cl)c(=O)c3s2)C1 (centres undefined) |
| 871 | CCOc1ccccc1C(=O)Nc1ccc2c(c1)Sc1ncccc1C(=O)N2C(C)C |
| 595 | COc1ccc(C2C(C(=O)NCc3ccccn3)c3cc(OC)c(OC)cc3C(=O)N2C)cc1OC (centres undefined) |
| 863 | CC(=O)Nc1nsc(N2CCC(C(=O)NCc3ccc(F)cc3Cl)CC2)n1 |
| 1040 | CCOc1ccc(CNC(=O)C2CCCN(S(=O)(=O)c3ccc4c(ccn4CC)c3)C2)cc1 (centres undefined) |
| 974 | CS(=O)(=O)Nc1ccc(-c2noc(COc3ccc(Cl)cc3)n2)cc1 |
| 585 | COCC(=O)NC(Cc1ccccc1)c1nnc(N2CCN(C)CC2)o1 (centres undefined) |
| 737 | O=S(=O)(NCc1cccnc1-c1ccc(F)cc1)c1ccc(F)cc1 |
| 687 | Cc1ccc(-c2n[nH]c3c2CN(S(=O)(=O)c2cn(C)cn2)CC3)cc1 |
| 659 | O=S(=O)(Nc1ccc(F)cc1)c1cccn2cnnc12 |

| RP-LC retention time [s] | SMILES |
| --- | --- |
| 858 | Cc1sc2ccn(Cc3ccc(F)cc3)c(=O)c2c1C(=O)NCC1CC1 |
| 875 | O=C(Cn1cccc(-c2nc(-c3ccc(F)cc3)no2)c1=O)Nc1ccc(F)cc1F |
| 624 | Cn1ncc2c3ccccc3n(CC(=O)NC3CCN(Cc4ccccc4)CC3)c2c1=O |
| 860 | O=S(=O)(NCc1ccccc1)c1ccc2c(c1)-c1oncc1CO2 |
| 648 | Cc1cc(Cl)ccc1NC(=O)N1CCC(c2nc3ccncc3n2C(C)C)C1 (centres undefined) |
| 858 | COc1ccc(NC(=O)CSc2nnc3c4cc(-c5ccccc5)nn4ccn23)c(OC)c1 |
| 789 | Cc1ccc(-n2nc(C)c(S(=O)(=O)N3CCC(C(=O)NC4CC4)CC3)c2C)cc1 |
| 860 | O=C(NC1CCCCC1)C1c2ccccc2C(=O)N1Cc1ccc2c(c1)OCO2 (centres undefined) |
| 1110 | Cc1sc(NC(=O)Cn2c(=O)sc3ccccc32)nc1-c1ccc(Cl)cc1 |
| 677 | O=C(CCc1c(-c2ccc(F)cc2)nc2ccccn12)NCc1cccc(Br)c1 |
| 717 | COc1ccccc1-c1nnc(NC(=O)C2CCCN2S(=O)(=O)c2ccc(F)cc2)o1 (centres undefined) |
| 984 | Cc1noc(C)c1S(=O)(=O)N1CCC(c2nc(CCOCc3ccccc3)no2)C1 (centres undefined) |
| 1060 | CC1CCN(C(=O)c2nnc(-c3ccc(S(=O)(=O)N4CCCCC4)cc3)o2)CC1 |
| 918 | Cc1ccc(C)c(NC(=O)CN2C(=O)CCCc3cc(S(=O)(=O)N4CCCC4)ccc32)c1 |
| 1160 | CCc1ccccc1NC(=O)c1nnn(-c2ccc3noc(-c4ccccc4)c3c2)c1C |
| 959 | CC(C)c1noc(-c2cc(=O)n(CC(=O)NCc3ccccc3F)c3ccccc23)n1 |
| 679 | CCN1CCN(c2c(S(=O)(=O)c3ccc(C)c(C)c3)cnc3ccc(OC)cc23)CC1 |
| 655 | CC(NC(=O)c1ccc(F)c(F)c1)C(=O)Nc1nc2ccccc2[nH]1 (centres undefined) |
| 950 | CS(=O)(=O)Nc1ccc(C2(C(=O)NCc3ccc(F)c(Cl)c3)CCCCC2)cc1 |
| 1050 | COc1cccc(CC(=O)N2CCc3nc(-c4ccc(Cl)cc4)ncc3C2)c1 |
| 672 | Cc1ccc(-c2cn3cccc(C)c3n2)cc1NS(=O)(=O)c1ccccc1 |
